From patent publication US20230203043A1, “NOVEL IMIDAZOPYRAZINE DERIVATIVES” (Hoffmann-La Roche Inc., priority 2020, published 2023)
Structures can show the parent of a compound that is named as a salt.

tested on: Acinetobacter baumannii ATCC17961; assay: Antimicrobial susceptibility testing: 90% growth inhibitory concentration (IC90) determination in Iso-Sensitest broth, OD600 growth; assay type: cell-based; settings: Acinetobacter baumannii, ATCC17961, 16 h, read-out: A. baumannii ATCC 17961 IC90 (uM), strain ATCC 17961, OD600 growth over 16 h
Outline: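 Twofold compound dilutions (e.g. 50 to 0.097 μM final) in Iso-Sensitest broth with ~5×10^(5) CFU/ml, 35±2 °C. OD600 read every 20 min over 16 h; IC90 from growth inhibition during logarithmic phase.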

Row | SMILES | IC90 [µM]
1 | CCc1cc(Nc2nccn3c(-c4cn(CC(F)F)nc4C(F)(F)F)cnc23)ccc1C(=O)NCCOCCN1CCOCC1 [Example 717, 4-((3-(1-(2,2-difluoroethyl)-3-(trifluoromethyl)-1H-pyrazol-4-yl)imidazo[1,2-a]pyrazin-8-yl)amino)-2-ethyl-N-(2-(2-morpholinoethoxy)ethyl)benzamide formate] | 0.434
2 | Cc1cc(Nc2nccn3c(-c4cn(CC#N)nc4C(F)(F)F)cnc23)ccc1C(=O)NCC(=O)N1CC[C@H](N)C1 [Example 739, N-[2-[(3S)-3-aminopyrrolidin-1-yl]-2-oxo-ethyl]-4-[[3-[1-(cyanomethyl)-3-(trifluoromethyl)pyrazol-4-yl]imidazo[1,2-a]pyrazin-8-yl]amino]-2-methyl-benzamide formate] | 0.527
3 | CCc1cc(Nc2nccn3c(-c4cn(CC(F)F)nc4C(F)(F)F)cnc23)ccc1C(=O)NCCCNC(=O)CCN [Example 630, N-(3-(3-aminopropanamido)propyl)-4-((3-(1-(2,2-difluoroethyl)-3-(trifluoromethyl)-1H-pyrazol-4-yl)imidazo[1,2-a]pyrazin-8-yl)amino)-2-ethylbenzamide formate] | 0.206
4 | CCc1cc(Nc2nccn3c(-c4cn(CCCO)nc4C(F)(F)F)cnc23)ccc1C(=O)NCCOCCN [Example 312, N-[2-(2-aminoethoxy)ethyl]-2-ethyl-4-[[3-[1-(3-hydroxypropyl)-3-(trifluoromethyl)pyrazol-4-yl]imidazo[1,2-a]pyrazin-8-yl]amino]benzamide formate] | 0.839
5 | C[C@@H](NC(=O)c1ccc(Nc2nccn3c(-c4c[nH]nc4C(F)(F)F)cnc23)cc1Cl)C(=O)N1CC[C@@H](N)C1 [Example 97, N-[(2R)-1-[(3R)-3-aminopyrrolidin-1-yl]-1-oxopropan-2-yl]-2-chloro-4-[[3-[3-(trifluoromethyl)-1H-pyrazol-4-yl]imidazo[1,2-a]pyrazin-8-yl]amino]benzamide formate] | 1.7
6 | CCc1cc(Nc2nccn3c(-c4c[nH]nc4C(F)(F)F)cnc23)ccc1C(=O)NCCNC(=O)[C@@H](N)CCCCN [Example 221, N-[2-[[(2S)-2,6-diaminohexanoyl]amino]ethyl]-2-ethyl-4-[[3-[3-(trifluoromethyl)-1H-pyrazol-4-yl]imidazo[1,2-a]pyrazin-8-yl]amino]benzamide formate] | 0.922
7 | CCc1cc(Nc2nccn3c(-c4c[nH]nc4C(F)(F)F)cnc23)ccc1C(=O)NCCNC(=O)NCCN [Example 218, N-[2-(2-aminoethylcarbamoylamino)ethyl]-2-ethyl-4-[[3-[3-(trifluoromethyl)-1H-pyrazol-4-yl]imidazo[1,2-a]pyrazin-8-yl]amino]benzamide formate] | 0.574
8 | CCc1cc(Nc2nccn3c(-c4cn(CC(F)F)nc4C(F)(F)F)cnc23)ccc1C(=O)NCC(CN)CCl (stereo not drawn) [Example 558, N-(3-amino-2-(chloromethyl)propyl)-4-((3-(1-(2,2-difluoroethyl)-3-(trifluoromethyl)-1H-pyrazol-4-yl)imidazo[1,2-a]pyrazin-8-yl)amino)-2-ethylbenzamide formate] | 0.174
9 | CCc1cc(Nc2nccn3c(-c4cn(CCOC)nc4C(F)(F)F)cnc23)ccc1C(=O)NCCOCCN [Example 34, N-[2-(2-aminoethoxy)ethyl]-2-ethyl-4-[[3-[1-(2-methoxyethyl)-3-(trifluoromethyl)pyrazol-4-yl]imidazo[1,2-a]pyrazin-8-yl]amino]benzamide formate] | 0.367
10 | N#CCn1cc(-c2cnc3c(Nc4ccc(C(=O)N5CCN(C(=O)CC6CCNCC6)CC5)c(Cl)c4)nccn23)c(C(F)(F)F)n1 [Example 572, 2-(4-(8-((3-chloro-4-(4-(2-(piperidin-4-yl)acetyl)piperazine-1-carbonyl)phenyl)amino)imidazo[1,2-a]pyrazin-3-yl)-3-(trifluoromethyl)-1H-pyrazol-1-yl)acetonitrile formate] | 0.291
11 | Cc1cc(Nc2nccn3c(-c4cn(C)nc4C(F)(F)F)cnc23)ccc1C(=O)N1CCN(C(=O)[C@H]2CCNC[C@@H]2O)CC1 [Example 478, formic acid; [4-[(3R,4S)-3-hydroxypiperidine-4-carbonyl]piperazin-1-yl]-[2-methyl-4-[[3-[1-methyl-3-(trifluoromethyl)pyrazol-4-yl]imidazo[1,2-a]pyrazin-8-yl]amino]phenyl]methanone] | 3.46
12 | CCc1cc(Nc2nccn3c(-c4cn(CC(F)F)nc4C(F)(F)F)cnc23)ccc1C(=O)NCCNC(=O)[C@H](C)N [Example 616, (S)-N-(2-(2-aminopropanamido)ethyl)-4-((3-(1-(2,2-difluoroethyl)-3-(trifluoromethyl)-1H-pyrazol-4-yl)imidazo[1,2-a]pyrazin-8-yl)amino)-2-ethylbenzamide formate] | 0.153
13 | Cc1cc(Nc2nccn3c(-c4cn(C)nc4C(F)(F)F)cnc23)ccc1C(=O)NCCCNC(=O)[C@@H]1C[C@@H](O)CN1 [Example 455, formic acid; (2S,4R)-4-hydroxy-N-[3-[[2-methyl-4-[[3-[1-methyl-3-(trifluoromethyl)pyrazol-4-yl]imidazo[1,2-a]pyrazin-8-yl]amino]benzoyl]amino]propyl]pyrrolidine-2-carboxamide] | 1.21
14 | C[C@@H](NC(=O)c1ccc(Nc2nccn3c(-c4c[nH]nc4C(F)(F)F)cnc23)cc1Cl)C(=O)N[C@@H]1CCNC1 [Example 93, 2-chloro-N-[(2R)-1-oxo-1-[[(3R)-pyrrolidin-3-yl]amino]propan-2-yl]-4-[[3-[3-(trifluoromethyl)-1H-pyrazol-4-yl]imidazo[1,2-a]pyrazin-8-yl]amino]benzamide formate] | 1.02
15 | CCc1cc(Nc2nccn3c(-c4cn(Cc5nccn5C)nc4C(F)(F)F)cnc23)ccc1C(=O)NCCCNCCCCNCCCN [Example 84, N-[3-[4-(3-aminopropylamino)butylamino]propyl]-2-ethyl-4-[[3-[1-[(1-methylimidazol-2-yl)methyl]-3-(trifluoromethyl)pyrazol-4-yl]imidazo[1,2-a]pyrazin-8-yl]amino]benzamide hydrochloride] | 2.98

same assay, conditions: Acinetobacter baumannii, ATCC17961, 16 h, strain ATCC 17961, OD600 growth over 16 h, read-out: A. baumannii ATCC 17961 IC90

Row | SMILES | IC90 [µM]
16 | Cc1cc(Nc2nccn3c(-c4cn(CC#N)nc4C(F)(F)F)cnc23)cc(F)c1C(=O)N1CCN(C(=O)[C@H]2[C@@H]3CNC[C@@H]32)CC1 [Example 676, 2-(4-(8-((4-(4-((1R,5S,6r)-3-azabicyclo[3.1.0]hexane-6-carbonyl)piperazine-1-carbonyl)-3-fluoro-5-methylphenyl)amino)imidazo[1,2-a]pyrazin-3-yl)-3-(trifluoromethyl)-1H-pyrazol-1-yl) acetonitrile formate] | 0.316
17 | CCc1cc(Nc2nccn3c(-c4cn(CC(F)F)nc4C(F)F)cnc23)ccc1C(=O)N1CCN(C(=O)C2(O)CCNCC2)CC1 [Example 764, (4-(4-((3-(1-(2,2-difluoroethyl)-3-(difluoromethyl)-1H-pyrazol-4-yl)imidazo[1,2-a]pyrazin-8-yl)amino)-2-ethylbenzoyl)piperazin-1-yl)(4-hydroxypiperidin-4-yl)methanone] | 0.809
18 | O=C(c1ccc(Nc2nccn3c(-c4cn(CC(F)F)nc4C(F)(F)F)cnc23)cc1Cl)N1CCN(C(=O)[C@@H]2CCCN2)CC1 [Example 115, [2-chloro-4-[[3-[1-(2,2-difluoroethyl)-3-(trifluoromethyl)pyrazol-4-yl]imidazo[1,2-a]pyrazin-8-yl]amino]phenyl]-[4-[(2S)-pyrrolidine-2-carbonyl]piperazin-1-yl]methanone] | 0.251
19 | CCc1cc(Nc2nccn3c(-c4c[nH]nc4C(F)(F)F)cnc23)ccc1C(=O)N[C@H](C)CNC(=O)[C@@H]1CCCN1 [Example 762, (S)-N-((R)-2-(2-ethyl-4-((3-(3-(trifluoromethyl)-1H-pyrazol-4-yl)imidazo[1,2-a]pyrazin-8-yl)amino)benzamido)propyl) pyrrolidine-2-carboxamide] | 0.722
20 | CCc1cc(Nc2nccn3c(-c4cn(CC#N)nc4C(F)F)cnc23)ccc1C(=O)N1CCN(C(=O)[C@H](N)C(C)C)CC1 [Example 797, 2-(4-(8-((4-(4-(D-valyl)piperazine-1-carbonyl)-3-ethylphenyl)amino)imidazo[1,2-a]pyrazin-3-yl)-3-(difluoromethyl)-1H-pyrazol-1-yl)acetonitrile] | 2.36
21 | C#CCn1cc(-c2cnc3c(Nc4ccc(C(=O)NCCOC[C@H](C)N)c(CC)c4)nccn23)c(C(F)(F)F)n1 [Example 147, N-[2-[(2S)-2-aminopropoxy]ethyl]-2-ethyl-4-[[3-[1-prop-2-ynyl-3-(trifluoromethyl)pyrazol-4-yl]imidazo[1,2-a]pyrazin-8-yl]amino]benzamide] | 0.049
22 | CCc1cc(Nc2nccn3c(-c4cn(CC(F)F)nc4C(F)(F)F)cnc23)ccc1C(=O)NCC(=O)N1CCNCC1 [Example 679, 4-[[3-[1-(2,2-difluoroethyl)-3-(trifluoromethyl)pyrazol-4-yl]imidazo[1,2-a]pyrazin-8-yl]amino]-2-ethyl-N-(2-oxo-2-piperazin-1-yl-ethyl) benzamide formate] | 0.322

same assay, conditions: strain ATCC 17961, OD600 growth over 16 h, read-out: A. baumannii ATCC 17961 IC90

Row | SMILES | IC90 [µM]
23 | C#CCNC(=O)c1c(C)cc(Nc2nccn3c(-c4cn(CC#C)nc4C(F)(F)F)cnc23)cc1F [Example 40, 2-fluoro-6-methyl-N-prop-2-ynyl-4-[[3-[1-prop-2-ynyl-3-(trifluoromethyl)pyrazol-4-yl]imidazo[1,2-a]pyrazin-8-yl]amino] benzamide] | 0.196
24 | NC1CCC(NC(=O)c2ccc(Nc3nccn4c(-c5c[nH]nc5C(F)(F)F)cnc34)cc2Cl)CC1 (stereo not drawn) [Example 405, N-(4-aminocyclohexyl)-2-chloro-4-[[3-[3-(trifluoromethyl)-1H-pyrazol-4-yl]imidazo[1,2-a]pyrazin-8-yl]amino]benzamide] | 1.3
